The results in this text go back to ChEMBL document CHEMBL6103545, “Discovery of GS-2278, a Potent and Selective LPAR1 Antagonist for the Treatment of Idiopathic Pulmonary Fibrosis” (J Med Chem, 2025).

The target in data set [1] is Lysophosphatidic acid receptor 5 (Homo sapiens, UniProt Q9H1C0). Briefly: Antagonist activity at human LPA5 receptor overexpressed in CHO cells pre-incubated for 1 hr followed by LPA addition by fluorescence based FLIPR calcium assay. The data set is classed as functional, cell-based.
Sequence of Lysophosphatidic acid receptor 5 (Q9H1C0 whole entry): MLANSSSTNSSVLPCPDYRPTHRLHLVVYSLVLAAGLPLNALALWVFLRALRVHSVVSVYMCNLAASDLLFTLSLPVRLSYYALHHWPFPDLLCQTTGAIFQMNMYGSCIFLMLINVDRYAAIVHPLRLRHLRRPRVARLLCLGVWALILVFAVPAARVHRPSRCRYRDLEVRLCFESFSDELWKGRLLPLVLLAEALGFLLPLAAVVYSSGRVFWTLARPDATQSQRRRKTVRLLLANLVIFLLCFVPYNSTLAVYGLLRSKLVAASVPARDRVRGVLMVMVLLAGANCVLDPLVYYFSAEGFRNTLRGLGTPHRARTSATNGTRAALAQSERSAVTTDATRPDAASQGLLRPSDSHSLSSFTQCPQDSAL
Data set [2] in a line: Plasma protein binding in cynomolgus monkey assessed as unbound fraction at 2 uM incubated for 24 hrs by LC-MS analysis. The data set is classed as ADME, cell-free, Macaca fascicularis.
A short description of data set [3]: Volume of distribution in male Sprague-Dawley rat at 1 mg/kg, iv s measured after 24 hrs by LC/MS/MS analysis. The data set is classed as ADME, organism-based. The settings on record: in vivo.
For data set [4], the target named is T1, Lysophosphatidic acid receptor 3 (Homo sapiens, UniProt Q9UBY5).
T1 sequence (Q9UBY5 whole entry): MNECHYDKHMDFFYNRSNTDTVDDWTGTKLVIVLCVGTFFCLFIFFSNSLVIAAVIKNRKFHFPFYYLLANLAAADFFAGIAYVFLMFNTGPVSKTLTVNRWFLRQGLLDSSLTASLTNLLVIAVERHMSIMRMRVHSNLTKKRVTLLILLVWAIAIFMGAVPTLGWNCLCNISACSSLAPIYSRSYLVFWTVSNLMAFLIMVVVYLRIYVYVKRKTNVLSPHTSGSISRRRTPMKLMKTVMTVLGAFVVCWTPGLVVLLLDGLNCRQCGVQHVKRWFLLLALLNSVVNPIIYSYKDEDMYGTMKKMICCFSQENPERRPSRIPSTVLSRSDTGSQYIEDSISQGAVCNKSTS
The data set can be described thus: Antagonist activity at human LPA3 receptor overexpressed in CHO cells pre-incubated for 1 hr followed by LPA addition by fluorescence based FLIPR calcium assay. The data set is classed as functional, cell-based.

Data set [5] in a line: Unbound drug concentration in CD-1 mouse brain at 2 uM incubated for 5 hrs by LC-MS analysis. It counts as ADME, tissue-based.
The target of data set [6] is Lysophosphatidic acid receptor 1 (Homo sapiens, UniProt Q92633). The data set can be described thus: Antagonist activity at human wild-type LPA1 receptor expressed in HEK293 cells assessed as internalization incubated for 30 mins by BRET assay. The data set is classed as cell-based. (Bioluminescence resonance energy transfer reports proximity on the nanometre scale.)
Sequence of Lysophosphatidic acid receptor 1 (Q92633 whole entry): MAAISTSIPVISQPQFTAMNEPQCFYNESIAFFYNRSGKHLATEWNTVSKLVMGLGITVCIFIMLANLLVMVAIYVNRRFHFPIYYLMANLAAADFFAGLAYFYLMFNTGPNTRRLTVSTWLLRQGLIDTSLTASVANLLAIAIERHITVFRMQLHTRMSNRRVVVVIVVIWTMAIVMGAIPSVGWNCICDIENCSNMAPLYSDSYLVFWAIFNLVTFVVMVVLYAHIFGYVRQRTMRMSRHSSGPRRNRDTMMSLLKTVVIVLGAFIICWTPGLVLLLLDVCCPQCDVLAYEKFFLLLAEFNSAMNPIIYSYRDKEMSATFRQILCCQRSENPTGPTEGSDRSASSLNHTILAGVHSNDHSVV

Data set [7] in a line: Oral bioavailability in Beagle dog at 5 mg/kg measured after 24 hrs by LC/MS/MS analysis. The data set is classed as ADME, organism-based, Canis lupus familiaris. The settings on record: in vivo.
The nature of data set [8]: Metabolic stability in Beagle dog liver microsomes assessed as intrinsic clearance at 1 uM by LC/MS/MS analysis. The settings on record: read-out: CLH (converted). The data set is classed as ADME, Canis lupus familiaris, Microsome. A general note: Microsomes from liver hold many membrane-bound enzymes, among them those of drug oxidation.
The next data set has as its target T2, Cytochrome P450 1A2 (Homo sapiens, UniProt P05177).
T2 sequence (P05177 whole entry): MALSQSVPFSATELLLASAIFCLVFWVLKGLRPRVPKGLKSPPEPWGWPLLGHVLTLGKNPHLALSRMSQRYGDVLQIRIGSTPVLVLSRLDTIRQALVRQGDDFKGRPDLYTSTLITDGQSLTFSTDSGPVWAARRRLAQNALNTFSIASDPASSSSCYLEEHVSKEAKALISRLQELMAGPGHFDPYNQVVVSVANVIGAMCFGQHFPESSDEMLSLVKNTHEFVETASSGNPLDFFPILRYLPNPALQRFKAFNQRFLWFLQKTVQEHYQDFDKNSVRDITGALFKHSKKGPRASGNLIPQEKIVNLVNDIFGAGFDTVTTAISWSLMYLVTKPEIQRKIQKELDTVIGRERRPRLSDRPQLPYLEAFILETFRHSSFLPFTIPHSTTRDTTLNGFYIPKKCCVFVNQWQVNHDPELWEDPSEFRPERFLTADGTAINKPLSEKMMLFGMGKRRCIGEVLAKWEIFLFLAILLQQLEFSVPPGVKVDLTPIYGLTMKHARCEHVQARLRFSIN
The data set can be described thus: Inhibition of CYP1A2 (unknown origin) using midazolam as substrate. It counts as ADME.

Each structure is given as a SMILES string. A value given as a limit tells only on which side of the number the result lay.

A word on the EC50: it is the concentration giving half of the maximal effect. As usually defined, the fraction unbound is free concentration divided by total concentration. For orientation: Vd means a proportionality between amount in the body and measured concentration, not a real space. The term bioavailability denotes the share of a dose that reaches the circulation, judged against a reference dose that is usually intravenous. Regarding `C[C@@H](OC(=O)Nc1c(-c2ccc(NC(=O)c3cnc(C(F)(F)F)nc3)cn2)nnn1C)c1cc(F)cnc1F`, the EC50 was more than 10 µM in [1], more than 10 µM in data set [4] and 0.0117 µM in data set [6]. The fraction unbound at 24 h, 2 µM in data set [2] was 0.24. The same compound showed a Vd in [3] of 0.8 L/kg. In addition, in data set [5], the fraction unbound at 5 h, 2 µM was found to be 0.133. Besides, the bioavailability in data set [7] stood at 49%. Moreover, in [8], the CLint scaled at 1 µM is 1.5 mL/min/kg. For the same compound, the “inhibition (INH)” value on Cytochrome P450 1A2 is “Not_active”.
